Paper PMC9765455 (Science Translational Medicine, 2022)
Read-outs that look alike come from different tables or passages of the source.

Assays:
[1] = system: SARS-CoV-2 Delta; assay: CPE-based cell viability assay (MTT); conditions: read-out: EC50 against SARS-CoV-2 Delta
[2] = system: SARS-CoV-2 VOCs; assay: CPE-based MTT assay against SARS-CoV-2 VOCs in 293T-hACE2-TMPRSS2 cells (fig. S4); assay type: cell-based; conditions: 293T-hACE2-TMPRSS2, fig. S4
Description: Antiviral compounds and antibodies were serially diluted 2-fold increments by culture medium containing 2% FBS and plated on 96-well microplates. The diluted compounds in the plates were mixed with SARS-CoV-2 and cell suspensions. The diluted antibodies were initially incubated with SARS-CoV-2 for 30 minutes and then added to the cell suspension. Cells in the plates were cultured for 2 to 3 days, and then exposed to MTT (3-[4,5-dimethyl-2-thiazolyl]-2,5-diphenyl-2H-tetrazolium bromide) (Nacalai Tesque). Cell viability was determined by measurement of absorbance at 560 nm and 690 nm. EC50 values were defined in GraphPad Prism version 8.4.3 (GraphPad Software) with a variable slope (four parameters).
Cytopathic effect (CPE) in 293T-hACE2-TMPRSS2 cells induced by SARS-CoV-2 infection was measured at 3 dpi by 3-[4,5-dimethyl-2-thiazolyl]-2,5-diphenyl-2H-tetrazolium bromide (MTT) […]
assay. […] Uninfected cells
(1 picture or pasted object on this page, not shown here)

[3] = system: Calu-3 cells, Vero-TMPRSS2 cells, primary human bronchial epithelial cells; assay: Compound cytotoxicity assay (CellTiter-Glo / LDH-Glo); assay type: cell-based; conditions: at the examined concentrations, 3 days
[4] = system: SARS-CoV-2 Alpha (lineage B.1.1.7); design: species or system Syrian hamsters; conditions: hamster, in vivo, 200 mg/kg
[5] = system: SARS-CoV-2 Gamma (lineage P.1); design: species or system Syrian hamsters; conditions: hamster, in vivo, 200 mg/kg
[6] = system: SARS-CoV-2 Omicron BA.1; design: species or system Syrian hamsters; conditions: hamster, in vivo, 200 mg/kg
[7] = system: SARS-CoV-2 Omicron BA.2; design: species or system Syrian hamsters; conditions: hamster, in vivo, 200 mg/kg
[8] = system: SARS-CoV-2 Omicron BA.5; design: species or system Syrian hamsters; conditions: hamster, in vivo, 200 mg/kg
[9] = system: SARS-CoV-2 Omicron BA.2.75; design: species or system Syrian hamsters; conditions: hamster, in vivo, 200 mg/kg
[10] = male, Syrian, hamster, in vivo
[11] = system: SARS-CoV; conditions: cited from earlier work
[12] = system: MERS-CoV; conditions: cited from earlier work
[13] = system: HCoV-OC43; conditions: cited from earlier work
[14] = healthy adults, phase 1 trial; cited from earlier work
[15] = system: P-glycoprotein (P-gp); assay: P-gp substrate assessment; conditions: inferred from CP-100356 enhancement in Vero-TMPRSS2
[16] = Pharmacokinetics after single oral administration
[17] = system: P-glycoprotein (P-gp); conditions: cited from earlier work
[18] = system: COVID-19; conditions: cited from earlier work
[19] = system: host DNA; design: method as in PMID 33961695; conditions: cell-based assays; cited from earlier work
[20] = Severe acute respiratory syndrome coronavirus 2, 293 T-hACE2-TMPRSS2
[21] = Severe acute respiratory syndrome coronavirus 2, Vero/TMPRSS2, Vero-TMPRSS2
[22] = Severe acute respiratory syndrome coronavirus 2, Vero/TMPRSS2, Vero-TMPRSS2 with CP-100356

Work on `Cn1cnc(Cn2c(=O)[nH]/c(=N\c3cc4cn(C)nc4cc3Cl)n(Cc3cc(F)c(F)cc3F)c2=O)n1` [S-217622] yielded an EC50 [1, 20] of 26 ± 6.65 nM, an EC50 [1, 21] of 407 ± 21.3 nM and an EC50 [1, 22] of 69 ± 11.2 nM. For the same compound, the “antiviral activity against VOCs” value [2] was “exhibited antiviral activity against all VOCs”, the cytotoxicity [3] was “No cytotoxicity was observed” and the “Fig. 3B: Virus titer” value [4] was “n.d.(=100)”. The “Fig. 3B: Virus titer” value [5] was “n.d.(=100)”, the “Fig. 3A: Viral RNA” value [6] was “n.d.(=1)” and the “Fig. 3B: Virus titer” value [6] was “n.d.(=100)”. For the same compound, the “Fig. 3B: Virus titer” value [7] was “n.d.(=100)”, the “Fig. 3B: Virus titer” value [8] was “n.d.(=100)” and the “Fig. 3A: Viral RNA” value [9] was “n.d.(=1)”. The “Fig. 3B: Virus titer” value [9] was “n.d.(=100)”, the “time at which plasma concentration reached the maximum” value [10] was 0.5 to 2.67 h and the EC50 [11] was 210 nM. For the same compound, the EC50 [12] was 1400 nM, the EC90 [13] was 74 nM and the bioavailability and tolerability [14] was “favorable bioavailability and tolerability”. For the same compound, the “substrate of P-gp” value [15] was “substrate of P-gp”, the “Cmax and AUC dose proportionality” value ([16]; 10 to 100 mg/kg) was “increased more than the dose ratio” and the bioavailability ([16]; hamsters, plasma) was “excellent bioavailability”. The half-life ([16]; male, Syrian, hamster, plasma, po, 100 mg/kg) was 3.43 to 4.46 h.

`O=c1nc(NO)ccn1[C@@H]1O[C@H](CO)[C@@H](O)[C@H]1O` [NHC, N-hydroxycytidine] showed an EC50 [1, 20] of 538 ± 142 nM, an EC50 [1, 21] of 360 ± 49.4 nM and an EC50 [1, 22] of 677 ± 8.89 nM.

For `CCC(CC)COC(=O)[C@H](C)N[P@](=O)(OC[C@H]1O[C@@](C#N)(c2ccc3c(N)ncnn23)[C@H](O)[C@@H]1O)Oc1ccccc1` [Remdesivir], the EC50 [1, 20] was < 3.9 nM, the EC50 [1, 21] was > 500 nM and the EC50 [1, 22] was 32 ± 4.52 nM. The “substrate of P-gp” value [17] was “major substrates”.

Work on `CC(C)C(=O)OC[C@H]1O[C@@H](n2ccc(NO)nc2=O)[C@H](O)[C@@H]1O` [Molnupiravir, reference compound] yielded an EC50 [1, 20] of 3680 ± 1090 nM, an EC50 [1, 21] of 3170 ± 217 nM and an EC50 [1, 22] of 2280 ± 118 nM. The “decrease of the risk of hospitalization for COVID-19” value ([18]; clinical trial) was 30% and the mutagenesis [19] was “mutagenesis not only for viral RNA but also for host DNA”.

With `CC(C)(C)[C@H](NC(=O)C(F)(F)F)C(=O)N1C[C@H]2[C@@H]([C@H]1C(=O)N[C@H](C#N)C[C@@H]1CCNC1=O)C2(C)C` [Nirmatrelvir] the EC50 [1, 20] was 37 ± 5.3 nM, the EC50 [1, 21] was > 1000 nM and the EC50 [1, 22] was 132 ± 32 nM. The “reduction in the risk of hospitalization or death” value [18] was 88% and the “substrate of P-gp” value [17] was “major substrates”.
